The source made the active and inactive calls. The rule behind the calls is not given here. Where a SMILES comes first, the peptide text is derived from it. Bridges are numbered along the chain shown (N, C = ends). [ ]: non-standard residue; d: D form. hArg = N=C(N)NCCCC[C@H](N)C(=O)O; Mpa = O=C(O)CCS

In this assay the test system is VEGF-stimulated ADSC/ECFC co-culture, nuclear area imaging. The assay can be described thus: nuclear area loss in endothelial-stromal co-culture, dose response, cell-based, VEGF stimulation, IC50 (AID 1117324).
The term IC50 denotes the concentration needed to halve the response being measured. As for `Clc1ccc(COC(Cn2ccnc2)c2ccc(Cl)cc2Cl)cc1` (centres undefined), the IC50 is 9.93 µM (inactive). To `CCCCCCCCCCCCCC[N+](C)(C)Cc1ccccc1` belongs 8.36 µM (inactive); to `Cn1cc(S(C)=O)c(=O)c2ccc(F)cc21` (centres undefined), > 10 µM (inactive); to `O=C(OCc1ccccc1)c1cccnc1`, > 10 µM (inactive). As to `CN(C)c1ccc(C(=C2C=CC(=[N+](C)C)C=C2)c2ccc(N(C)C)cc2)cc1`, the IC50 is 1.83 µM. The same measure for `CSc1ccc(/C=C2/C(C)=C(CC(=O)O)c3cc(F)ccc32)cc1`: > 10 µM (inactive); for `O=C(Nc1ccc(Br)cc1)c1cc(Br)c(Br)s1`: > 10 µM (inactive); for `OC[C@@H](O)[C@H](O)[C@H](O)[C@@H](O)CO`: > 10 µM (inactive). In the case of `O=C1c2c(O)ccc(O)c2C(=O)c2c(NCCNCCO)ccc(NCCNCCO)c21`, the IC50 is 0.0127 µM. In the case of `COC(=O)C1=C(C)NC(C)=C(C(=O)O[C@@H]2CCCN(Cc3ccccc3)C2)[C@@H]1c1cccc([N+](=O)[O-])c1`, the IC50 was > 10 µM (inactive). For the molecule `CCN(CC)C(=O)/C(C#N)=C/c1cc(O)c(O)c([N+](=O)[O-])c1`, the IC50 is > 10 µM (inactive). To `CC(C)Cn1cnc2c1c(=O)n(C)c(=O)n2C` belongs > 10 µM (inactive). Turning to `CCCCc1oc2ccc(NS(C)(=O)=O)cc2c1C(=O)c1ccc(OCCCN(CCCC)CCCC)cc1`, the IC50 is 7.56 µM (inactive). For the molecule `O=[N+]([O-])c1cccc(S(=O)(=O)NCCNS(=O)(=O)c2cccc([N+](=O)[O-])c2)c1`, the IC50 was > 10 µM (inactive). Take `Cc1cc(C2CCCCC2)n(O)c(=O)c1`: the IC50 was > 10 µM (inactive).

On to `C/C=C(/C(=C/C)c1ccc(OC(C)=O)cc1)c1ccc(OC(C)=O)cc1`, for which the IC50 was > 10 µM (inactive). The same measure for `CCOC(=O)C1=C[C@]2(CC)CCCN3CCc4c(n1c1ccccc41)[C@@H]32`: > 10 µM (inactive); for `CCCCCCCC(=O)OCC(COC(=O)CCCCCCC)OC(=O)CCCCCCC`: > 10 µM (inactive); for `COc1ccccc1OCCNCC(O)COc1cccc2[nH]c3ccccc3c12` (centres undefined): > 10 µM (inactive). For the molecule `CC(=O)[C@]1(O)Cc2c(O)c3c(c(O)c2[C@@H](O[C@H]2C[C@H](N)[C@H](O)[C@H](C)O2)C1)C(=O)c1ccccc1C3=O`, the IC50 is 0.538 µM.

Take `CN(C)CCOC1=Cc2ccccc2Sc2ccc(Cl)cc21`: the IC50 was > 10 µM (inactive). On to `Clc1ccc(C(Cn2ccnc2)OCc2ccsc2Cl)c(Cl)c1` (centres undefined), for which the IC50 was 9.47 µM (inactive). For the molecule `O=C(N/N=C/c1ccccc1O)c1ccncc1`, the IC50 is > 10 µM (inactive). The same measure for `CCCSS/C(CCO)=C(\C)N(C=O)Cc1cnc(C)nc1N`: > 10 µM (inactive); for `CCCCCCCCCCCCCCCC[N+](C)(C)CC`: 7.58 µM (inactive); for `CCCCCCCCCCCCCCCC(=O)OCC=C(C)C=CC=C(C)C=CC1=C(C)CCCC1(C)C`: > 10 µM (inactive). Regarding `Clc1ccc(CSC(Cn2ccnc2)c2ccc(Cl)cc2Cl)cc1` (centres undefined), the IC50 is 8.76 µM (inactive). To `O=C(O)c1ccc2[nH]cc(CCCCN3CC=C(c4ccccc4)CC3)c2c1` belongs > 10 µM (inactive); to `CN(C)/N=N/c1nc[nH]c1C(N)=O`, > 10 µM (inactive); to `Cc1nc2ccc(CN(C)c3ccc(C(=O)N[C@@H](CCC(=O)O)C(=O)O)s3)cc2c(=O)[nH]1`, > 10 µM (inactive). On to `CC(=O)NC(=O)c1ccccc1O`, for which the IC50 was > 10 µM (inactive). The same measure for `Clc1ccc(CO/N=C(\Cn2ccnc2)c2ccc(Cl)cc2Cl)c(Cl)c1`: 8.85 µM (inactive); for `CSc1ccc2c(c1)C(N1CCN(C)CC1)Cc1ccccc1S2` (centres undefined): > 10 µM (inactive); for `CCC1=C[C@@H]2CN(C1)Cc1c([nH]c3ccccc13)[C@@](C(=O)OC)(c1cc3c(cc1OC)N(C)[C@H]1[C@@](O)(C(=O)OC)[C@H](OC(C)=O)[C@]4(CC)C=CCN5CC[C@]31[C@@H]54)C2`: > 10 µM (inactive). As for `CC(=O)c1ccc(OCC(=O)N2CCCCC2)cc1`, the IC50 was > 10 µM (inactive).

`Cc1ccc([N+](=O)[O-])[c]2c1[O][Hg]2`: the IC50 is 1.09 µM. On to `CCN(CC)CCNC(=O)c1c(C)[nH]c(/C=C2\C(=O)Nc3ccc(F)cc32)c1C`, for which the IC50 was > 10 µM (inactive). `CC[C@]1(O)C[C@@H]2CN(CCc3c([nH]c4ccccc34)[C@@](C(=O)OC)(c3cc4c(cc3OC)N(C)[C@H]3[C@@](O)(C(=O)OC)[C@H](OC(C)=O)[C@]5(CC)C=CCN6CC[C@]43[C@@H]65)C2)C1`: the IC50 is > 10 µM (inactive). On to `O=C(CBr)Nc1ccc(Cl)cc1C(=O)c1ccccc1F`, for which the IC50 was > 10 µM (inactive). Consider `N[C@@H](Cc1ccc(N(CCCl)CCCl)cc1)C(=O)O`, for which the IC50 is > 10 µM (inactive). On to `O=C1NCN(c2ccccc2)C12CCN(CCCC(c1ccc(F)cc1)c1ccc(F)cc1)CC2`, for which the IC50 was 8.09 µM (inactive).

In the case of `CC[C@@]1(O)C(=O)OCc2c1cc1n(c2=O)Cc2cc3c(CN(C)C)c(O)ccc3nc2-1`, the IC50 is 0.025 µM. Regarding `COc1ccc(/C=C/C(=O)c2ccc(OC)cc2OC)cc1`, the IC50 was > 10 µM (inactive). On to `CC(C)(C)C1CCC(CC2=C(O)c3ccccc3C(=O)C2=O)CC1` (centres undefined), for which the IC50 was > 10 µM (inactive). Regarding `CCc1oc2ccccc2c1C(=O)c1cc(Br)c(O)c(Br)c1`, the IC50 is > 10 µM (inactive). To `CCCCCCCCCCCCCC[N+](C)(C)C` belongs 6.68 µM (inactive).

For `CN1CCN(C2Cc3ccccc3Sc3ccc(Cl)cc32)CC1` (centres undefined), the IC50 is > 10 µM (inactive). `C[C@H]1O[C@@H](O[C@H]2CC[C@@]3(C)[C@H](CC[C@@H]4[C@@H]3C[C@@H](O)[C@]3(C)[C@@H](C5=CC(=O)OC5)CC[C@]43O)C2)C[C@H](O)[C@@H]1O[C@H]1C[C@H](O)[C@H](O[C@H]2C[C@H](O)[C@H](O[C@@H]3O[C@H](CO)[C@@H](O)[C@H](O)[C@H]3O)[C@@H](C)O2)[C@@H](C)O1`: the IC50 is 0.299 µM. On to `CCN1CCC[C@H]1CNC(=O)c1c(OC)ccc(Br)c1OC`, for which the IC50 was > 10 µM (inactive).

As to `CCCCCCCCCCCCCCCC[N+](C)(C)Cc1ccccc1`, the IC50 was > 10 µM (inactive). As to `Clc1cc(Cl)c(OCC#CI)cc1Cl`, the IC50 was > 10 µM (inactive). To `O=C(O)c1ccc(-n2nc(-c3ccccc3O)nc2-c2ccccc2O)cc1` belongs > 10 µM (inactive); to `CC(=O)Oc1ccc(C2(c3ccc(OC(C)=O)cc3)Oc3ccccc3NC2=O)cc1`, > 10 µM (inactive). The same measure for `O=C(c1ccc(F)cc1)C1CCN(CCn2c(=O)[nH]c3ccccc3c2=O)CC1`: > 10 µM (inactive); for `Cc1c(C)c2c(c(C)c1OC(=O)CCC(=O)O)CC[C@@](C)(CCC[C@H](C)CCC[C@H](C)CCCC(C)C)O2`: > 10 µM (inactive). Take `CCCCCCCCCCCCCCCCCC[N+](C)(C)CCC[Si](OC)(OC)OC`: the IC50 was > 10 µM (inactive). The same measure for `NC(=O)[C@@H]1CSSCCC(=O)N[C@@H](CCCCN=C(N)N)C(=O)NCC(=O)N[C@@H](CC(=O)O)C(=O)N[C@@H](Cc2c[nH]c3ccccc23)C(=O)N2CCC[C@H]2C(=O)N1` ([Mpa][hArg]GDWPC-NH2; disulfide 1-7): > 10 µM (inactive). With `COCC(C)N(C(=O)CCl)c1c(C)csc1C` (centres undefined), the IC50 is > 10 µM (inactive). Turning to `NC(=O)c1cccnc1`, the IC50 is > 10 µM (inactive).

For the molecule `Oc1c(Cl)cc(Cl)cc1Sc1cc(Cl)cc(Cl)c1O`, the IC50 was > 10 µM (inactive). To `CC(=O)N(CC(O)CN(C(C)=O)c1c(I)c(C(=O)NCC(O)CO)c(I)c(C(=O)NCC(O)CO)c1I)c1c(I)c(C(=O)NCC(O)CO)c(I)c(C(=O)NCC(O)CO)c1I` (centres undefined) belongs > 10 µM (inactive); to `CN1CCN(CCCN2c3ccccc3Sc3ccc(C(F)(F)F)cc32)CC1`, > 10 µM (inactive); to `CCC=CCC=CCC=CCCCCCCCC(=O)O`, > 10 µM (inactive). As to `CCCCCCCCOC(=O)c1ccccc1C(=O)OCCCCCCCC`, the IC50 was > 10 µM (inactive). Take `O=c1[nH]c(=O)n([C@H]2C[C@H](O)[C@@H](CO)O2)cc1Br`: the IC50 is > 10 µM (inactive). As to `CCCCCN=C(N)N/N=C/c1c[nH]c2ccc(OC)cc12`, the IC50 was 7.17 µM (inactive). The same measure for `CC(=O)O[C@H]1C[C@H](O[C@H]2[C@@H](O)C[C@H](O[C@@H]3[C@@H](O)C[C@H](O[C@H]4CC[C@@]5(C)[C@H](CC[C@@H]6[C@H]5C[C@@H](O)[C@]5(C)[C@@H](C7=CC(=O)OC7)CC[C@]65O)C4)O[C@@H]3C)O[C@@H]2C)O[C@H](C)[C@H]1O[C@@H]1O[C@H](CO)[C@@H](O)[C@H](O)[C@@H]1O`: 0.279 µM. Consider `CO[C@@]12[C@H](COC(N)=O)C3=C(C(=O)C(C)=C(N)C3=O)N1C[C@@H]1N[C@@H]12`, for which the IC50 is 5.96 µM (inactive). For the molecule `Cc1cc(=O)c2c(O)c3c(O)cc(=O)c4c3c3c(cc(O)c1c23)C(C)(C)C=4O`, the half-maximal inhibitory concentration (IC50) is 2.07 µM. To `CCCCCCCCCCC[C@@H](C[C@@H]1OC(=O)[C@H]1CCCCCC)OC(=O)[C@H](CC(C)C)NC=O` belongs > 10 µM (inactive); to `CCCSc1ccc2nc(NC(=O)OC)[nH]c2c1`, > 10 µM (inactive); to `CN(C)c1ccc2nc3ccc(=[N+](C)C)cc-3sc2c1`, > 10 µM (inactive). The same measure for `CC(C)C[C@H](NC(=O)[C@H](CCc1ccccc1)NC(=O)CN1CCOCC1)C(=O)N[C@@H](Cc1ccccc1)C(=O)N[C@@H](CC(C)C)C(=O)[C@@]1(C)CO1`: 0.285 µM. Consider `COc1c(C)c2c(c(O)c1C/C=C(\C)CCC(=O)OCCN1CCOCC1)C(=O)OC2`, for which the IC50 is > 10 µM (inactive). To `O=C(Nc1ccc(Br)cc1)c1cc(Br)cc(Br)c1O` belongs > 10 µM (inactive). Take `O=C(Nc1ccc(Cl)cc1)Nc1ccc(Cl)c(Cl)c1`: the IC50 was > 10 µM (inactive). For the molecule `O=c1[nH]sc2cc(Cl)ccc12`, the IC50 was 9.43 µM (inactive). The same measure for `COc1ccc(/C=N/NC(=O)c2ccncc2)cc1OC`: > 10 µM (inactive). Turning to `COC(=O)c1ccccc1C(=O)OC`, the IC50 is > 10 µM (inactive).
